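Tested at 5 concentrations; 48 h exposure; 96-well plates; endpoints linearly interpolated, else capped at highest concentration. The concentration for full growth arrest is given as TGI.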

What all share (experiment): inhibition of tumour cell growth, NCI panel, 48 h
For assay [1], the system named is SNB-78 CNS.
Assay [2] deals with M14 melanoma.
For assay [3], the system named is DMS 114 small cell lung.
The test system of assay [4] is HCT-15 colon.
Assay [5] has as its system NCI-H522 lung.
In assay [6] the test system is DLD-1 colon.
Assay [7] deals with M19-MEL melanoma.
Assay [8] relates to SK-MEL-5 melanoma.
In assay [9] the test system is KM20L2 colon.
The subject of assay [10] is CAKI-1 renal.
Assay [11] relates to LXFL 529 NSCLC.
The subject of assay [12] is MDA-MB-231 breast.
The subject of assay [13] is HS 578T breast.
For assay [14], the system named is NCI/ADR-RES ovarian.

On to `CCC(=O)N(O)C(C)(C)C`, for which the TGI in assay [1], in [2], in assay [3], in assay [4], in [5] and in assay [6] was more than 100 µM each time. Besides, the TGI in assay [7], in assay [8], in assay [9], in [10] and in assay [11] was more than 100 µM each time.
Consider `COc1ccc(C(=O)/C=C/c2cccnc2)cc1OC`, for which the TGI in [12] came out at 23.8 µM; in assay [2] it was 26.6 µM; in assay [4] it was 23.9 µM; in [5], 3.5 µM; in assay [13] it was 49.6 µM; in assay [8], 27.4 µM. Also, the TGI came to 36.5 µM in [14] and 15.7 µM in [10].
As for `CC1(C)OC(=O)C2(O1)C(=O)C1CCCCC12` (stereo unspecified), the TGI in assay [12], in assay [2], in [4], in [5], in [13] and in assay [8] was more than 100 µM each time. Further, the TGI in [14] and in assay [10] was more than 100 µM in each case.
As to `CC(=O)N(CN1C(=O)CCC1C(=O)O)c1cccc(O)c1` (stereo unspecified), the TGI in assay [12], in assay [2], in assay [4], in [5], in assay [13] and in assay [8] was more than 100 µM throughout. Moreover, the TGI in assay [14] and in assay [10] was more than 100 µM each time.
Turning to `O=C(/C=C/c1ccccc1)CSc1nc2ccc(I)cc2c(=O)n1Cc1ccccc1`, the TGI was more than 100 µM in [12]; more than 100 µM in [2]; more than 100 µM in assay [4]; more than 89.5 µM in assay [5]; 67.7 µM in [13]; 99.3 µM in [8]. Further, the values for the TGI in assay [14] and in assay [10] were more than 100 µM and 3.74 µM, respectively.
Take `Cc1n[nH]c(=O)n1/N=C\CC/C=N\n1c(C)n[nH]c1=O`: the TGI in assay [12], in assay [2], in assay [4], in assay [5], in assay [13] and in assay [8] was more than 100 µM throughout. The TGI in [14] and in assay [10] was more than 100 µM each time.
As to `C=C1C(=O)O[C@H]2[C@H]3O[C@@H](C[C@@H]12)[C@@]1(C)CC[C@H](O1)C(C)=CCC[C@H]3C`, the TGI in assay [12] was 3.14 µM; in assay [2], 3.15 µM; in assay [4], 3.2 µM; in [5], 3.42 µM; in assay [13], 8.95 µM; in assay [8], 2.81 µM. The TGI in assay [14] was 3.33 µM; in assay [10], 2.56 µM.
As to `Cc1ccc2c(c1)-c1c(C#N)c(N)nc(-c3ccccc3)c1CCS2(=O)=O`, the TGI in [12] is more than 100 µM; in assay [2], more than 100 µM; in assay [4], more than 100 µM; in [5], 4.58 µM; in [13], more than 47.6 µM; in [8] it was more than 24 µM. Besides, the TGI was more than 46.5 µM in [14] and more than 100 µM in assay [10].
For `N#Cc1[nH]c(=O)n(-c2cccc3ccccc23)c1N`, the TGI in assay [12], in assay [2], in [4], in [5], in assay [13] and in assay [8] was more than 10 µM each time. Moreover, the TGI in assay [14] and in [10] was more than 10 µM each time.
For the compound `COc1cc(Oc2nc3c(N)cc(C(F)(F)F)cc3nc2-c2ccccc2)cc(OC)c1OC`, the TGI was more than 100 µM in [12]; more than 100 µM in [2]; more than 100 µM in [4]; 18.8 µM in assay [5]; more than 53.8 µM in assay [13]; 48.6 µM in assay [8]. Moreover, the TGI was more than 26.1 µM in assay [14] and more than 45.2 µM in assay [10].
Take `COc1cccc(C2SCC(=O)N2c2ccc(-n3c(-c4ccccc4)nc4ccccc4c3=O)cc2)c1OC` (stereo unspecified): the TGI in [12], in assay [2], in assay [4], in assay [5], in assay [13] and in assay [8] was more than 100 µM in each case. Further, the TGI in assay [14] and in assay [10] was more than 100 µM each time.
Take `COc1ccc(C2(O)c3ccccc3C(=O)N(C)C2(O)c2ccc(OC)cc2)cc1` (stereo unspecified): the TGI in [12] is more than 100 µM; in [2], more than 100 µM; in assay [4] it was more than 100 µM; in [5] it was 74.9 µM; in [13], 29 µM; in assay [8], more than 100 µM. The TGI in [14] and in assay [10] was more than 100 µM each time.
Regarding `Nc1ncnc2c1cnn2Cc1cn(COCC(O)CO)nn1` (stereo unspecified), the TGI in assay [12] was more than 100 µM; in assay [2], more than 100 µM; in assay [4], more than 100 µM; in assay [5] it was 30.8 µM; in assay [13] it was 32.8 µM; in assay [8], more than 100 µM. In addition, the TGI in [14] and in assay [10] was more than 100 µM each time.
For the compound `COc1cc(/C=C2\C(=O)N(Cc3ccccc3)C(c3ccccc3)S2(=O)=O)cc(OC)c1OC` (stereo unspecified), the TGI is more than 100 µM in assay [12]; more than 100 µM in assay [2]; more than 100 µM in [4]; more than 100 µM in assay [5]; more than 100 µM in assay [13]; 51.8 µM in [8]. In addition, the TGI in assay [14] and in assay [10] was more than 100 µM throughout.
Consider `COc1cccc2c1C(=O)c1ccc3cc(CCl)cc(O)c3c1C2=O`, for which the TGI in assay [12] stood at 0.35 µM; in assay [2], 0.743 µM; in assay [4] it was 1.13 µM; in assay [5], 1.15 µM; in [13], 2.32 µM; in [8] it was 1.19 µM. Besides, the TGI in assay [14] was 1.39 µM; in assay [10], 1.7 µM.
Regarding `c1ccc2c(c1)nc1n2C2CCC(C2)N1` (stereo unspecified), the TGI in assay [12], in [2], in [4], in assay [5], in [13] and in assay [8] was more than 10 µM each time. In addition, the TGI in [14] and in assay [10] was more than 10 µM throughout.
For `CN(C)CCn1c(=O)c2ccc3c4c(nn3CCN(C)C)c3cc(O)ccc3n(c1=O)c24`, the TGI worked out at 0.727 µM in [12]; 0.846 µM in assay [2]; 3.36 µM in [4]; 0.0292 µM in assay [5]; 0.373 µM in assay [13]; 0.787 µM in [8]. For the same compound, the TGI in assay [14] amounted to 6.82 µM; in [10], 0.291 µM.
`COC(C)(C)CCc1[nH]c2ccccc2c1CC(=O)NCCc1cncn1C`: the TGI in assay [12], in [2], in [4], in assay [5], in assay [13] and in [8] was more than 100 µM in each case. Also, the TGI in [14] and in [10] was more than 100 µM in each case.
Take `CCOC(=O)/C=C(\C(=O)OCC)n1ccc(=O)n(CC(=O)OCC)c1=O`: the TGI in assay [12] stood at 17.2 µM; in assay [2], 5.48 µM; in assay [4], 4.4 µM; in [5], 3.25 µM; in assay [13], 53.7 µM; in assay [8], 25.8 µM. The values for the TGI in assay [14] and in assay [10] were 60.8 µM and 1.68 µM, respectively.
`C/C(=N\NC(=S)NC(C)(C)C)c1ccccn1`: the TGI in [12] is more than 100 µM; in [2] it was 9.19 µM; in [4], more than 100 µM; in assay [5] it was more than 23.1 µM; in [13] it was more than 100 µM; in [8], more than 40 µM. Moreover, the TGI was more than 39.7 µM in [14] and more than 100 µM in assay [10].
Regarding `NNCCc1n[nH]c(=O)n1N`, the TGI in assay [12], in assay [2], in assay [4], in assay [5], in assay [13] and in assay [8] was more than 100 µM throughout. Also, the TGI in assay [14] and in assay [10] was more than 100 µM each time.
On to `CC(C)C/C=C/C1=NN(c2cccc(S(=O)(=O)O)c2)C2(C1)SCC(=O)N2c1nc2ccccc2s1` (stereo unspecified), for which the TGI in [12] is more than 100 µM; in assay [2], more than 100 µM; in [4], more than 100 µM; in assay [5], 60.2 µM; in assay [13], more than 100 µM; in [8], more than 100 µM. Also, the TGI in [14] and in assay [10] was more than 100 µM throughout.
On to `O=c1c2cn[nH]c2nc2scc(-c3ccc(Cl)cc3)n12`, for which the TGI in assay [12], in assay [2], in [4], in assay [5], in [13] and in assay [8] was more than 100 µM in each case. Also, the TGI in assay [14] and in assay [10] was more than 100 µM each time.
In the case of `O=C1CC(C(=O)N2CCCCC2)n2c(=O)n(-c3ccccc3)c(=O)n2C1` (stereo unspecified), the TGI in [12], in assay [2], in [4], in [5], in assay [13] and in [8] was more than 100 µM in each case. In addition, the TGI in [14] and in assay [10] was more than 100 µM in each case.
In the case of `CCOc1cc2c(cc1OC(C)=O)C(=O)CC[C@H]1C3CC[C@H](OC(C)=O)[C@@]3(C)CC[C@H]21` (stereo partly specified), the TGI in assay [12], in assay [2], in assay [4], in assay [5], in assay [13] and in assay [8] was more than 100 µM throughout. Moreover, the TGI in assay [14] and in assay [10] was more than 100 µM in each case.
On to `O=C1NC(=O)C(COCc2ccccc2)C2=C1SCCC2` (stereo unspecified), for which the TGI in [12], in assay [2], in assay [4], in assay [5], in assay [13] and in assay [8] was more than 100 µM throughout. In addition, the TGI in assay [14] and in assay [10] was more than 100 µM each time.
Take `Cc1ccc(S(=O)(=O)NNC2(NS(=O)(=O)c3ccc(Cl)cc3)C(Cl)=C(Cl)C(=O)c3ccccc32)cc1` (stereo unspecified): the TGI is 44.9 µM in assay [12]; 33 µM in assay [2]; 83.8 µM in assay [4]; more than 100 µM in assay [5]; 54.8 µM in [13]; 28.7 µM in [8]. The TGI in [14] worked out at 89.8 µM; in assay [10], 32.4 µM.
Regarding `CCOc1cc2c(cc1O)/C(=N/NS(=O)(=O)c1ccc(C)cc1)C[C@@H]1[C@@H]2CC[C@]2(C)[C@@H](O)CC[C@@H]12`, the TGI in assay [12], in assay [2], in [4], in [5], in assay [13] and in [8] was more than 100 µM throughout. In addition, the TGI in assay [14] and in [10] was more than 100 µM throughout.
Regarding `Cn1c(=O)c2c(ncn2CCCCOc2ccc3c(c2)[n+]([O-])nc(N)[n+]3[O-])n(C)c1=O`, the TGI in assay [12] was more than 100 µM; in assay [2], more than 100 µM; in [4] it was more than 100 µM; in assay [5], more than 100 µM; in [13], more than 100 µM; in assay [8], 22.1 µM. Besides, the TGI in assay [14] and in assay [10] was more than 100 µM in each case.
Turning to `CC(C)(CO)NC(=O)Nc1c(C(F)(F)F)cc(-c2ccccc2)[nH]c1=O`, the TGI in assay [12], in [2], in assay [4], in assay [5], in assay [13] and in assay [8] was more than 100 µM in each case. The TGI in assay [14] and in [10] was more than 100 µM in each case.
As for `CC(=O)O[C@H]1CCn2c3c(c(C)c21)C(=O)C(N1CC1)=C(C)C3=O`, the TGI in assay [12] is more than 10 µM; in assay [2] it was more than 10 µM; in assay [4], more than 10 µM; in assay [5] it was more than 10 µM; in assay [13] it was more than 10 µM; in assay [8], 6.67 µM. Further, the TGI in assay [14] and in [10] was more than 10 µM throughout.

These data come from PubChem BioAssay (NCI).
